# According to ChEMBL document CHEMBL4346699 (Eur J Med Chem, 2019):
# Columns and labels:
# [1] = AUC (0 to 7 hrs) in Sprague-Dawley rat at 5 mg/kg, po by LC-MS/MS analysis; assay type: ADME, organism-based; parameters: dose 5 mg/kg, time < 7 hr, route oral; conditions: in vivo
# [2] = Clearance in Sprague-Dawley rat at 1 mg/kg, iv by LC-MS/MS analysis; assay type: ADME, organism-based; conditions: in vivo
# [3] = Tmax in Sprague-Dawley rat at 5 mg/kg, po by LC-MS/MS analysis; assay type: ADME, organism-based; conditions: in vivo
# [4] = Half life in Sprague-Dawley rat at 1 mg/kg, iv by LC-MS/MS analysis; assay type: ADME, organism-based; conditions: in vivo
# [5] = AUC (0 to 7 hrs) in Sprague-Dawley rat at 1 mg/kg, iv by LC-MS/MS analysis; assay type: ADME, organism-based; parameters: dose 1 mg/kg, time < 7 hr, route intravenous; conditions: in vivo
# [6] = Volume of distribution at steady state in Sprague-Dawley rat at 1 mg/kg, iv by LC-MS/MS analysis; assay type: ADME, organism-based; conditions: in vivo, read-out: Vdss
# [7] = Oral bioavailability in Sprague-Dawley rat at 5 mg/kg by LC-MS/MS analysis; assay type: ADME, organism-based; conditions: in vivo
# [8] = Metabolic stability in human microsomes assessed as parent compound remaining after 30 mins; assay type: ADME, Microsome; conditions: read-out: Stability
# [9] = Metabolic stability in human microsomes assessed as parent compound remaining after 15 mins; assay type: ADME, Microsome; conditions: read-out: Stability
# [10] = Metabolic stability in human microsomes assessed as parent compound remaining after 0 mins; assay type: ADME, Microsome; conditions: read-out: Stability
# [11] = Clearance in rat microsomes; conditions: in vitro
# [12] = Clearance in human; assay type: ADME
# [13] = Metabolic stability in human microsomes assessed as parent compound remaining after 5 mins; assay type: ADME, Microsome; conditions: read-out: Stability
# [14] = Metabolic stability in rat microsomes assessed as parent compound remaining after 15 mins; assay type: ADME, Microsome; conditions: read-out: Stability
# [15] = Metabolic stability in rat microsomes assessed as parent compound remaining after 5 mins; assay type: ADME, Microsome; conditions: read-out: Stability
# [16] = Metabolic stability in rat microsomes assessed as parent compound remaining after 0 mins; assay type: ADME, Microsome; conditions: read-out: Stability
# [17] = Half life in rat microsomes; conditions: in vitro
# [18] = Metabolic stability in rat microsomes assessed as parent compound remaining after 45 mins; assay type: ADME, Microsome; conditions: read-out: Stability
# [19] = Metabolic stability in human microsomes assessed as parent compound remaining after 45 mins; assay type: ADME, Microsome; conditions: read-out: Stability
# [20] = Metabolic stability in rat microsomes assessed as parent compound remaining after 30 mins; assay type: ADME, Microsome; conditions: read-out: Stability
# [21] = biological target: CDK2/Cyclin A2 (Homo sapiens, UniProt P24941); test: Inhibition of CDK2/CyclinA (unknown origin) assessed as reduction in TAMRA tagged peptide substrate phosphorylation by fluorescence polarization assay; assay type: protein-complex assay
# [22] = biological target: Cyclin-dependent kinase 1 (Homo sapiens, UniProt P06493)
# Cyclin-dependent kinase 1, sequence (P06493 whole entry, the tested form may be a part): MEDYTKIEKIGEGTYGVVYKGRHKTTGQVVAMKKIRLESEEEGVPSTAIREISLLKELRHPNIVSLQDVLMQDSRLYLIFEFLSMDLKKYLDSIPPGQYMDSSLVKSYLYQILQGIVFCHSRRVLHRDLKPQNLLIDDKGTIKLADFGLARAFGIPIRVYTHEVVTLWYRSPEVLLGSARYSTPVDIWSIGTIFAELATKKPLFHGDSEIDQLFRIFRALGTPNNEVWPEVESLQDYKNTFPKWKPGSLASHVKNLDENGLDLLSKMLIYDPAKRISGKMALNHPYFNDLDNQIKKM
# Description: Inhibition of CDK1 (unknown origin)
# [23] = biological target: Homeodomain-interacting protein kinase 1 (Homo sapiens, UniProt Q86Z02); test: Inhibition of wild-type human partial length HIPK1 (M146 to I555 residues) expressed in mammalian expression system assessed as residual activity at 50 nM by Kinomescan method relative to control
# Homeodomain-interacting protein kinase 1, sequence (Q86Z02 whole entry, the tested form may be a part): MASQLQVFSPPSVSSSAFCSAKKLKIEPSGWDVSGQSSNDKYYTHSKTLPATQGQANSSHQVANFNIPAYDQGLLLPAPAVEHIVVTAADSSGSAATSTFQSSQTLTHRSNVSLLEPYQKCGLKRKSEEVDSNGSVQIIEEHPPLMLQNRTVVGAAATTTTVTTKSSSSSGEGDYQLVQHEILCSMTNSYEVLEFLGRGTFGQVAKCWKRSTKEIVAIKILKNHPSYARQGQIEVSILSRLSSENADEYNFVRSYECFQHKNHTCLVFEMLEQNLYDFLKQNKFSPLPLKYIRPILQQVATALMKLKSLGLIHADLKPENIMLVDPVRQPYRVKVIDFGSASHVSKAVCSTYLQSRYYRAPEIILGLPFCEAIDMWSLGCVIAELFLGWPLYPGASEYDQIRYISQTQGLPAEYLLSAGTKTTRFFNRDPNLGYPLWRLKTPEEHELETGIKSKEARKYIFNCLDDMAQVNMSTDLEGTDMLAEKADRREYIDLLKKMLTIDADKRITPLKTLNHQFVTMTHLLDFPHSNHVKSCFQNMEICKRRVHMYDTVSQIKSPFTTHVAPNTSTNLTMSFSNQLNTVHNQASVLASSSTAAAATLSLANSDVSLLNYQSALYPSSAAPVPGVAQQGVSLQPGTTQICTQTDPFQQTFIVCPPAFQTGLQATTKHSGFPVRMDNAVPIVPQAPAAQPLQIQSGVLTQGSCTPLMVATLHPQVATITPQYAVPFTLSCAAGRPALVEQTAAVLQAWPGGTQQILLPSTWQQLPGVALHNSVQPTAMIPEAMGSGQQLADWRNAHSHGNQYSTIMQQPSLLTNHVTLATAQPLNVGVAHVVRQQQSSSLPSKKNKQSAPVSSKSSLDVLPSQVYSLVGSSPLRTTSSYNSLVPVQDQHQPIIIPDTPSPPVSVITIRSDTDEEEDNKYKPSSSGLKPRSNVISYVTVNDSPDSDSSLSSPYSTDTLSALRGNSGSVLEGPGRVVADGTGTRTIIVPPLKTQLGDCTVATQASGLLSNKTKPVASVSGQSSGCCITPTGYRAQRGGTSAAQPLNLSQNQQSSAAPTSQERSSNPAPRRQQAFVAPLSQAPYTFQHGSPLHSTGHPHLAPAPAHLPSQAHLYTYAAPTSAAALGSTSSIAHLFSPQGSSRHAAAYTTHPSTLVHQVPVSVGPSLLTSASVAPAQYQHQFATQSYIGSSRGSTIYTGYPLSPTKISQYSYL
# [24] = Protein binding in human plasma; assay type: ADME, cell-free; conditions: read-out: PPB (converted)
# [25] = Tmax in human; assay type: ADME
# [26] = biological target: Calcium/calmodulin-dependent protein kinase type 1 (Homo sapiens, UniProt Q14012); test: Inhibition of wild-type human full length CAMK1A (M1 to L370 residues) expressed in bacterial expression system assessed as residual activity at 50 nM by Kinomescan method relative to control
# Calcium/calmodulin-dependent protein kinase type 1, sequence (Q14012 whole entry, the tested form may be a part): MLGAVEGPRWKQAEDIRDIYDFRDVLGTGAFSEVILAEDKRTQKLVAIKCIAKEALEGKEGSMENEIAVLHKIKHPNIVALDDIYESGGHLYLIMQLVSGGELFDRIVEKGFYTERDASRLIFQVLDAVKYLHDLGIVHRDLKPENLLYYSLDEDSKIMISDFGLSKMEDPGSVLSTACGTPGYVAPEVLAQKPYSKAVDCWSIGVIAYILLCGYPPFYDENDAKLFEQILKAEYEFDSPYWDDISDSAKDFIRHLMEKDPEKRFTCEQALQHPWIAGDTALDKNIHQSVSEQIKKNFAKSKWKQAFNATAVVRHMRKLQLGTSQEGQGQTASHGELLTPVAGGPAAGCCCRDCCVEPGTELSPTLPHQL
# [27] = Oral bioavailability in human at 125 mg; assay type: ADME, organism-based; conditions: in vivo
# [28] = Tmax in human at 125 mg, po; assay type: ADME; conditions: in vivo
# [29] = Protein binding in human plasma at 125 mg, po; assay type: ADME, cell-free; conditions: read-out: PPB (converted)
SMILES,remaining at 0.5 h [8] [%],remaining at 0.25 h [9] [%],remaining at 0 h [10] [%],clearance [11] [L/h/kg],clearance [12] [L/h/kg],remaining at 5 min [13] [%],remaining at 0.25 h [14] [%],remaining at 5 min [15] [%],remaining at 0 h [16] [%],half-life [17] [h],remaining at 0.75 h [18] [%],remaining at 0.75 h [19] [%],remaining at 0.5 h [20] [%],further results
[2H]C([2H])([2H])N(C(=O)c1cc2cnc(Nc3ccc(N4CCNCC4)cn3)nc2n1C1CCCC1)C([2H])([2H])[2H],–,–,–,–,–,–,–,–,–,–,–,–,–,AUC [1]: 5432 nM·h; clearance [2]: 2.22 L/h/kg; Tmax [3]: 2 h; half-life [4]: 3.2 h; AUC ([5]; 7 h): 883 nM·h; Vd [6]: 8.6 L/kg; F [7]: 55%
[2H]C([2H])([2H])C([2H])([2H])N1C([2H])([2H])C([2H])([2H])N(Cc2ccc(Nc3ncc(F)c(-c4cc(F)c5nc(C)n(C(C)C)c5c4)n3)nc2)C([2H])([2H])C1([2H])[2H],21.3,47.9,100,2.6,7.82,80.3,86,92.2,100,0.956,57.6,9.86,69.9,–
[2H]c1nc(Nc2ncc(F)c(-c3cc(F)c4nc(C)n(C(C)C)c4c3)n2)c([2H])c([2H])c1CN1CCN(C([2H])([2H])C([2H])([2H])[2H])CC1,16.4,43.3,100,3.16,9.28,79.4,83,92.7,100,0.785,51.3,6.48,65.9,–
[2H]C([2H])([2H])C([2H])([2H])N1CCN(Cc2ccc(Nc3ncc(F)c(-c4cc(F)c5nc(C)n(C(C)C)c5c4)n3)nc2)CC1,16,42.4,100,3.17,9.39,77.7,83.4,93.8,100,0.784,51.3,6.21,66.9,–
CN(C)C(=O)c1cc2cnc(Nc3ccc(N4CCNCC4)cc3)nc2n1C1CCCC1,–,–,–,–,–,–,–,–,–,–,–,–,–,IC50 [21]: > 1.4 µM; IC50 [22]: > 1.6 µM
CCN1CCN(Cc2ccc(Nc3ncc(F)c(-c4cc(F)c5nc(C)n(C(C)C)c5c4)n3)nc2)CC1 [ABEMACICLIB],13,38.9,100,3.77,10.3,76.1,81,94.1,100,0.658,45.6,4.76,61.6,Ki [23]: < 0.01 µM; fraction unbound [24]: 0.04; Tmax [25]: 4 to 24 h; Ki [26]: < 0.01 µM
CC(=O)c1c(C)c2cnc(Nc3ccc(N4CCNCC4)cn3)nc2n(C2CCCC2)c1=O [PALBOCICLIB],–,–,–,–,–,–,–,–,–,–,–,–,–,bioavailability [27]: 46%; Tmax [28]: 6 to 12 h; fraction unbound [29]: 0.15
CN(C)C(=O)c1cc2cnc(Nc3ccc(N4CCNCC4)cn3)nc2n1C1CCCC1 [RIBOCICLIB],–,–,–,–,–,–,–,–,–,–,–,–,–,AUC [1]: 1618 nM·h; Tmax [3]: 1.5 h; half-life [4]: 2.3 h; fraction unbound [24]: 0.3; AUC(0-t) at 7 h ([5]; Sprague-Dawley): 1030 nM·h; Tmax [25]: 1 to 4 h
